Columns and labels:
[1] = Solubility of the GUD substrates (statement); type: physicochemical; conditions: for liquid homogeneous assay formats
[2] = target: T1, E. coli α-D-Glucuronidase (Sigma, G7896) (Escherichia coli, UniProt P05804); assay: Sensitivity of GUD assay (reaction rates by OD, spectrophotometric); type: biochemical
T1 construct: purchased Sigma G7896
Method: E. coli […] (Sigma, G7896) was diluted in PBS buffer containing 10 mM DTT and 0.1% Triton X-100 and either substrate p-nitrophenol glucuronide (Sigma N1627) or phenolsulphonphthaleinyl (or chlorophenol red) glucuronide of the present invention. The final concentration of each substrate was1 mM. The final concentration of GUD was 60 pM, 125 pM, 250 pM, 500 pM, or 1000 pM. Readings of Optical Density (OD) were measured at 415 nm for assay with p-nitrophenol glucuronide and at 574 nm for assay with chlorophenol red glucuronide. OD measurements were conducted over 30 minutes at 37° C. in a Beckman DU70 spectrophotometer and the reaction rates were determined in mOD/min. […] Therefore, the sensitivity of the GUD assay utilizing a substrate of the present invention as compared to the sensitivity of GUD assay with a conventional substrate.

[3] = target: T2, purified β-glucuronidase (Sigma G-7896) (Escherichia coli, UniProt P05804); assay: Enzyme assay: suitability of the substrate for detecting β-glucuronidase; type: biochemical, E. coli; conditions: 50 MM sodium phosphate buffer, pH 7.0, 10 mM β-mercaptoethanol, 0.1% Triton X-100
T2 construct: purchased Sigma G-7896
Method: The suitability of the chlorophenol red β-D-glucuronic acid substrate (IVA) for detecting β-glucuronidase in a sample was tested following the procedure of Jefferson et al., PNAS (1986) Vol. 83, 8447-8451. The solid product (IVA) was dissolved in water to a final concentration of approximately 100 mM (red-orange product). An aliquot was added to 50 μM of purified β-glucuronidase (Sigma G-7896) in 50 MM sodium phosphate buffer, pH 7.0, 10 mM β-mercaptoethanol and 0.1% Triton X-100.

T1 sequence (P05804 whole entry): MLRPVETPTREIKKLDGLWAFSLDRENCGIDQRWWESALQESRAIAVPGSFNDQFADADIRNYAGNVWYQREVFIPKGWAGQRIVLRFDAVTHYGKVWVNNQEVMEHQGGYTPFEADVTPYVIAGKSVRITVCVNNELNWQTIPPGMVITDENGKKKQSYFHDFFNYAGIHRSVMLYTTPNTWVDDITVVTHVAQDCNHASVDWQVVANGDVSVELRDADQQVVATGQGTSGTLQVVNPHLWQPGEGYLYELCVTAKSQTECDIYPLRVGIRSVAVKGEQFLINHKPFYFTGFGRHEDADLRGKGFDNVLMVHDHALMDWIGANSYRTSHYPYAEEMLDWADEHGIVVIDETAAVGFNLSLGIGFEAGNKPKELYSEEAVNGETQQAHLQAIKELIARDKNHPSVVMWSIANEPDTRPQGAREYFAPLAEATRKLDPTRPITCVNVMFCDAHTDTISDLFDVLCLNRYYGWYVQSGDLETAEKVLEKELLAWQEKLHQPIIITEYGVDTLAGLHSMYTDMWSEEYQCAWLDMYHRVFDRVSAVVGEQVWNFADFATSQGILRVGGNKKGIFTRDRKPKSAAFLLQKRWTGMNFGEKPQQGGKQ
T2 sequence (P05804 whole entry): as above

SMILES: O=C1C=C/C(=C(/c2ccc(OC3OC(C(=O)O)[C@@H](O)C(O)C3O)c(Cl)c2)c2ccccc2S(=O)(=O)[O-])C=C1Cl.[Na+] (stereo partly drawn) [IVA, Chlorophenol Red β-D-Glucuronic Acid]
- Solubility [1]: highly soluble
- Reaction rate (mOD/min) relative to the nitrophenol-glucuronide substrate ([2]; each substrate 1 mM, GUD 60-1000 pM, 37° C., 30 minutes, OD at 574 nm vs 415 nm): 5.76 fold
- Signal intensity relative to nitro-phenol glucuronide (FIG. 1) ([2]; identical amounts of GUD added to each substrate): about six-fold
- Suitability as substrate: appearance of a violet product with absorbance maximum at 575 nm [3]: suitable for the detection of β-glucuronidase

From patent publication US6534637B2, “Synthesis of chlorophenol red glucuronic acid” (Beckman Coulter, Inc., priority 2001, dated 2003)
